According to ChEMBL document CHEMBL2321714, “Novel Aza-resveratrol analogs: synthesis, characterization and anticancer activity against breast cancer cell lines” (Bioorg Med Chem Lett, 2013):
Calls of active or inactive are those of the source. The rule behind the calls is not given here.

Columns and labels:
MCF-10A = test: Cytotoxicity against human MCF10A cells at 50 uM by MTT assay; format: cell-based
T47D [1] = test: Cytotoxicity against human T47D cells at 50 uM by MTT assay; format: functional
MDA-MB-231 [2] = test: Cytotoxicity against human MDA-MB-231 cells at 50 uM by MTT assay; format: functional
MDA-MB-231 [3] = test: Induction of autophagy in human MDA-MB-231 cells assessed as increase in Beclin-1 expression at 50 uM after 12 hrs by Western blot analysis; format: functional, cell-based
T47D [4] = test: Induction of autophagy in human T47D cells assessed as increase in Beclin-1 expression at 50 uM after 12 hrs by Western blot analysis; format: functional, cell-based
T47D [5] = test: Cytotoxicity against human T47D cells by MTT assay; format: functional, cell-based
MDA-MB-231 [6] = test: Cytotoxicity against human MDA-MB-231 cells by MTT assay; format: functional, cell-based

Row | SMILES | Activity (MCF-10A) | Activity (T47D [1]) | Activity (MDA-MB-231 [2]) | Activity (MDA-MB-231 [3]) | Activity (T47D [4]) | IC50 (T47D [5]) [µM] | IC50 (MDA-MB-231 [6]) [µM]
1 | COc1ccc(/N=C/c2ccc(O)c(O)c2)cc1 | Non-toxic | Active | Active |  |  |  | 
2 | Oc1ccc(/N=C/c2ccc(O)c(O)c2)cc1 | Non-toxic | 40% | 65% | Active | Active | 44 | 29
3 | Oc1ccc(/C=N/c2ccc(F)cc2)cc1O | Non-toxic | Active | Active |  |  |  | 
4 | Oc1ccc(/C=N/c2ccc(Cl)cc2)cc1O | Non-toxic | Active | Active |  |  |  | 
5 | Oc1ccc(/C=N/c2ccc3[nH]ccc3c2)cc1O | Non-toxic | 40% | inactive |  |  |  | 
6 | Cc1ccc(/N=C/c2ccc(O)c(O)c2)cc1 | Non-toxic | 40% | 65% | Active | Active | 32 | 21
7 | Oc1ccc(/C=C/c2cc(O)cc(O)c2)cc1 [RESVERATROL] |  | 40% | 40% |  |  | 76 | 66
